Test results as given in US9320722B2, “Regulators of aldehyde dehydrogenase ALDH3A1 and related therapeutic methods” (Indiana University Research and Technology Corporation, priority 2013, dated 2016).
Like-named read-outs stand apart in the source and are kept apart here.

Assays:
ALDH3A1 [1] = biological target: T1, ALDH3A1 (Homo sapiens (Human), UniProt P30838); experiment: biochemical; details: for inhibition at 10 µM: read-out: % activity left after treating with 10 micromolar inhibitor ALDH3A1
T1 sequence (P30838 whole entry): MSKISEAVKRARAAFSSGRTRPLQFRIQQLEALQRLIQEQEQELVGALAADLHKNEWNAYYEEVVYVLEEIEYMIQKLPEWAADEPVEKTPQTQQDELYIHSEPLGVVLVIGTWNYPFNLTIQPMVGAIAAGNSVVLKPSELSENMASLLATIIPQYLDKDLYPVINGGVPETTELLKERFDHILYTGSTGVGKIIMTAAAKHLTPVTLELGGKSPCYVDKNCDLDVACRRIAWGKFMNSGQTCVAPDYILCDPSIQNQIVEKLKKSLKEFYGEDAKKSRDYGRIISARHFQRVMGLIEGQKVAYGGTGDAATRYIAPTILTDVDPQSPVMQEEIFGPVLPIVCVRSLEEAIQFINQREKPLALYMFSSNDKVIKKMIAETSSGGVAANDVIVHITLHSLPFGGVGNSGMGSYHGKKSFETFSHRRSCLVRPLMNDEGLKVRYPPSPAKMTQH
Experimental: (§1) The enzymatic activity of ALDH1A1, ALDH2 and ALDH3A1 were measured as described previously^[30,34,37,39].
(§2) All reactions were initiated by the addition of the aldehyde substrate. The inhibition curves were fit to the Logistic four parameter IC50 equation using the SigmaPlot (v11, StatSys). We characterized the mode of inhibition using steady-state kinetics through co-variation of inhibitor and substrate concentrations. The steady state kinetic measurements were performed in 100 mM Na2HPO4 buffer, pH 7.5. […] In all cases—including the control reactions lacking inhibitors, the final reaction mixture contained 2% (v/v) DMSO. The reaction was initiated by addition of substrate and the initial rate of product formation was determined on a Beckman DU-640. All data were fit to the non-linear velocity expressions for competitive, non-competitive, mixed-type non-competitive and uncompetitive inhibition^[40]. Appropriateness of the inhibition model was determined through analysis of goodness-of-fit and the residuals of those fits. Lineweaver-Burke plots were created using SigmaPlot (v11, StatSys) to visualize the inhibition patterns. All data represent the average of three independent experiments utilizing triplicate assays at each concentration point.
(§3) ALDH1A1, ALDH2 and ALDH3A1 activities were measured as described earlier^33,44,45. […] Reaction was initiated by the addition of the aldehyde substrate. […] The inhibition curves were fit to the Logistic four parameter IC50 equation using the SigmaPlot (v11, StatSys). Steady state kinetic experiments were performed by co-varying inhibitor and substrate concentrations. The steady state kinetic measurements were performed in 100 mM Na2HPO4 buffer, pH 7.5.

ALDH3A1 [2] = biological target: T1, ALDH3A1
Experimental: as §1, §2, §3

Solubility = format: physicochemical; details: for concentration of homogenous solution easily formed: in the presence of […] DMSO
ALDH1A1 = ALDH1A1 (Homo sapiens (Human), UniProt P00352); experiment: ALDH1A1 dehydrogenase activity / IC50 determination (propionaldehyde substrate); format: biochemical; details: for IC50: Table 4, hits from ChemDiv screen, read-out: IC50 (micromolar) ALDH1A1; for inhibitory potential / activity toward ALDH1A1 in vitro (in words): CB29 analogs; for IC50 (micromolar) ALDH1A1: Tables 1A/1B, propionaldehyde substrate, S.D. in parentheses
Chain of ALDH1A1 (P00352 whole entry): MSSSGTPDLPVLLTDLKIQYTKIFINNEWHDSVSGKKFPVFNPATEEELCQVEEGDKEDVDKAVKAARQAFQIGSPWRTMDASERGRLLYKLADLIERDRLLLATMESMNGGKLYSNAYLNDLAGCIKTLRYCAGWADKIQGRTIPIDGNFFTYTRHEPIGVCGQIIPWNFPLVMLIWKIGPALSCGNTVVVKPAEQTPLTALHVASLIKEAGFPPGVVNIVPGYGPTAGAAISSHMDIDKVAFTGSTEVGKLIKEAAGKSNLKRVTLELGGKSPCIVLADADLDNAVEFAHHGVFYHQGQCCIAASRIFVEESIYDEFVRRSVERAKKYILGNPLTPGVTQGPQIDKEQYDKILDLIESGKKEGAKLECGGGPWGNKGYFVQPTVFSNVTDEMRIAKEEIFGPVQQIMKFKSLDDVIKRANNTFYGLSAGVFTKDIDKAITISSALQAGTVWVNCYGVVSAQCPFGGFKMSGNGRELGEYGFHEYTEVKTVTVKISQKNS
Experimental: as §1, §2, §3

ALDH2 = ALDH2 (Homo sapiens (Human), UniProt P05091); experiment: ALDH2 dehydrogenase activity / IC50 determination (propionaldehyde substrate); format: biochemical; details: for IC50: Table 4, hits from ChemDiv screen, NI not defined, read-out: IC50 (micromolar) ALDH2; for inhibitory potential toward ALDH2 activity in vitro (in words): CB29 analogs
Chain of ALDH2 (P05091 18-517): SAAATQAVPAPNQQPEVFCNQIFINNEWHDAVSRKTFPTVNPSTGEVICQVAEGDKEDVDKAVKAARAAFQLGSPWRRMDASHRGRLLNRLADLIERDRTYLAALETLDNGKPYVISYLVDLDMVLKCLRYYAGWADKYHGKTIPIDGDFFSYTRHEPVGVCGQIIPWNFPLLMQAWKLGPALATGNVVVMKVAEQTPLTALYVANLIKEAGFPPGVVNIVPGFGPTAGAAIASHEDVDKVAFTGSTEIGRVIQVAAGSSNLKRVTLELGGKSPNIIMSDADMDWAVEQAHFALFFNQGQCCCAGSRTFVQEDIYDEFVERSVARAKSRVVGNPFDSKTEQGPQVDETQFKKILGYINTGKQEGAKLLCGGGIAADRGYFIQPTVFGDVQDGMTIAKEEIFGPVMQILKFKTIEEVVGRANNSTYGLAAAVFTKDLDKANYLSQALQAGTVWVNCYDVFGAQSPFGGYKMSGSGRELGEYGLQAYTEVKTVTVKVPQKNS
Experimental: The enzymatic activity of ALDH1A1, ALDH2 and ALDH3A1 were measured as described previously^[30,34,37,39]. The specific activities of the purified proteins were 1.9, 3.8 and 32 μmole/min/mg for ALDH1A1, ALDH2 and ALDH3A1 respectively.
as §2, §3

SF767 cells = experiment: MTT assay for cell proliferation / mafosfamide sensitivity, SF767; format: cell-based; details: for chemosensitivity to mafosfamide (in words), SF767: 10 μM inhibitor + mafosfamide; for sensitivity to mafosfamide on co-treatment (in words), SF767: 50 μM inhibitor + […] mafosfamide; for sensitivity to mafosfamide on co-treatment (in words), SF767 / effect on cell proliferation as single agent (in words), SF767: FIG. 4B; for effect on cell proliferation as single agent (in words), SF767: 50 μM inhibitor
A549 cells = experiment: MTT assay for cell proliferation / mafosfamide sensitivity, A549; format: cell-based; details: FIG. 4A; for sensitivity to mafosfamide on co-treatment (in words), A549: 50 μM inhibitor + mafosfamide; for effect on cell proliferation as single agent (in words), A549: 50 μM inhibitor
[3] = read-out: ALDH3A1 IC50 (micromolar), Table 4(B), hits from ChemBridge screen
[4] = read-out: IC50 (micromolar) ALDH3A1, Table 4, hits from ChemDiv screen
[5] = read-out: IC50 (micromolar) ALDH3A1, Tables 1A/1B, benzaldehyde substrate, S.D. for three assays in parentheses
[6] = read-out: IC50 against ALDH3A1, benzaldehyde substrate

Cc1ccc(/C=C/[N+](=O)O)cc1Br [CB37]
inhibition at 10 µM (ALDH3A1 [1]): 30%

Cc1cc(OCC(=O)O)c([N+](=O)O)cc1Cl [CB3]
inhibition at 10 µM (ALDH3A1 [1]): 55%

O=C(CCN1CCOCC1)c1ccc2c(c1)OCCO2 [CB13]
IC50 (ALDH3A1 [2]; [3]): 11.7 µM

COc1ccc(/C=C/[N+](=O)O)cc1Br [CB38]
inhibition at 10 µM (ALDH3A1 [1]): 40%

Cc1nc2ccccc2n1S(=O)(=O)c1ccc(F)cc1 [CB7, 1-[(4-fluorophenyl)sulfonyl]-2-methyl-1H-benzimidazole]
solubility (in words) (Solubility): very good solubility

CCOC(=O)CN1C(=O)C(O)(CC(=O)c2ccncc2)c2ccccc21 (stereo not drawn) [CD8]
IC50 (ALDH3A1 [2]; [4]): 6.3 µM | IC50 (ALDH1A1): 0.8 µM | IC50 (ALDH2): 11.1 µM

OCCCn1c(-c2ccc(Cl)cc2)cn2c3ccccc3nc12 [CB11]
inhibition at 10 µM (ALDH3A1 [1]): 61%

CCNC(=O)CC1Nc2cc(C)c(C)cc2NC1=O (stereo not drawn) [CB16]
inhibition at 10 µM (ALDH3A1 [1]): 50%

N#CC(Cc1ccc(S(=O)(=O)c2ccc(Cl)cc2)cc1)c1nc2ccccc2[nH]1 (stereo not drawn) [CB10]
inhibition at 10 µM (ALDH3A1 [1]): 58%

CC(=O)c1nc2ccccc2n1S(=O)(=O)c1ccc(Cl)cc1 [Compound B37]
chemosensitivity to mafosfamide (in words), SF767 (SF767 cells): significantly increased chemosensitivity

N#CSC1CN=C(NC2CCCCC2)S1 (stereo not drawn) [CB6]
inhibition at 10 µM (ALDH3A1 [1]): 6%

CCSc1nnc2c(n1)OC(C(=O)c1ccc(OC)cc1)Nc1ccccc1-2 (stereo not drawn) [CD5]
IC50 (ALDH3A1 [2]; [4]): 1.5 µM | IC50 (ALDH1A1): 8.2 µM | IC50 (ALDH2): 1.2 µM

COc1ccc(/C=C/[N+](=O)O)cc1I [CB40]
inhibition at 10 µM (ALDH3A1 [1]): 30%

O=S(=O)(c1ccc(Cl)cc1)n1cnc2ccccc21 [Compound A21]
chemosensitivity to mafosfamide (in words), SF767 (SF767 cells): significantly increased chemosensitivity

O=C(O)CCc1ccc(-c2ccc(F)cc2)o1 [CB32]
inhibition at 10 µM (ALDH3A1 [1]): 36%

CN(C)c1ccc(/C=C/[N+](=O)O)cc1Br [CB41]
inhibition at 10 µM (ALDH3A1 [1]): 45%

CNS(=O)(=O)c1ccc(Nc2ccc(F)cc2)c([N+](=O)[O-])c1 [Compound 2]
concentration of homogenous solution easily formed (Solubility): ≥ 100 µM | IC50 (ALDH3A1 [2]; [5]): 26 µM | IC50 (ALDH3A1 [2]; [6]): 26 µM | sensitivity to mafosfamide on co-treatment (in words), A549 (A549 cells): increased sensitivity to mafosfamide | effect on cell proliferation as single agent (in words), A549 (A549 cells): little effect on cell proliferation | sensitivity to mafosfamide on co-treatment (in words), SF767 (SF767 cells): increased sensitivity to mafosfamide | effect on cell proliferation as single agent (in words), SF767 (SF767 cells): little effect on cell proliferation | inhibitory potential / activity toward ALDH1A1 in vitro (in words) (ALDH1A1): no inhibitory potential | inhibitory potential toward ALDH2 activity in vitro (in words) (ALDH2): no inhibitory potential

C#CCOc1ccc(/C=C/[N+](=O)O)cc1 [CB36]
inhibition at 10 µM (ALDH3A1 [1]): 30%

CCOc1cc(/C=C/[N+](=O)O)ccc1O [CB26]
inhibition at 10 µM (ALDH3A1 [1]): 45%

O=C(NC(O)C(=O)c1cccs1)c1ccncc1 (stereo not drawn) [CD12]
IC50 (ALDH3A1 [2]; [4]): 5.6 µM | IC50 (ALDH1A1): 4.2 µM | IC50 (ALDH2): 5.3 µM

Cc1cccc(C(=O)CN2CCN(S(=O)(=O)c3cc(Cl)ccc3Cl)CC2)c1 [CD20]
IC50 (ALDH3A1 [2]; [4]): 41 µM | IC50 (ALDH1A1): 33 µM

Nc1ccc(-c2cc(C(=O)O)c3ccccc3n2)cc1 [CB5]
inhibition at 10 µM (ALDH3A1 [1]): 34%

Cc1ccc(-c2ccc(/C=C/[N+](=O)O)o2)c(Br)c1 [CB39]
inhibition at 10 µM (ALDH3A1 [1]): 32%

C=CCOc1ccc(/C=C/[N+](=O)O)cc1OC [CB35]
inhibition at 10 µM (ALDH3A1 [1]): 46%

C#CCOc1c(Cl)cc(/C=C/[N+](=O)O)cc1OC [CB42]
inhibition at 10 µM (ALDH3A1 [1]): 46%

CCCSc1nnc2c(n1)OC(C(=O)c1ccc(OC)cc1)Nc1ccccc1-2 (stereo not drawn) [CD4]
IC50 (ALDH3A1 [2]; [4]): 2.5 µM | IC50 (ALDH1A1): 21.2 µM | IC50 (ALDH2): 1.4 µM

Cc1ccc(Nc2ccc(S(C)(=O)=O)cc2[N+](=O)[O-])cc1F [Compound 8]
concentration of homogenous solution easily formed (Solubility): ≥ 100 µM | IC50 (ALDH3A1 [2]; [5]): 10.8 µM | sensitivity to mafosfamide on co-treatment (in words), A549 (A549 cells): increased sensitivity to mafosfamide | effect on cell proliferation as single agent (in words), A549 (A549 cells): little effect on cell proliferation | sensitivity to mafosfamide on co-treatment (in words), SF767 (SF767 cells): increased sensitivity to mafosfamide | effect on cell proliferation as single agent (in words), SF767 (SF767 cells): little effect on cell proliferation | inhibitory potential / activity toward ALDH1A1 in vitro (in words) (ALDH1A1): no inhibitory potential | IC50 (micromolar) ALDH1A1 (ALDH1A1): WA (WA represents (30-50) % activation shown by 100 μM compound to respective enzymes) | inhibitory potential toward ALDH2 activity in vitro (in words) (ALDH2): no inhibitory potential | IC50 (ALDH3A1 [1]): 10 µM

O=C(NC(O)C(=O)c1cccs1)c1cccnc1 (stereo not drawn) [CD11]
IC50 (ALDH3A1 [2]; [4]): 10.2 µM | IC50 (ALDH1A1): 5.9 µM | IC50 (ALDH2): 6.5 µM

CCCC1C(C#N)=C(SCC(=O)c2ccc(Br)cc2)NC(C)=C1C(C)=O (stereo not drawn) [CD14]
IC50 (ALDH3A1 [2]; [4]): 71.5 µM | IC50 (ALDH1A1): 10.4 µM | IC50 (ALDH2): 13.7 µM

CN(CC(=O)[O-])c1nc2ccc([N+](=O)O)cc2s1 [CB21]
inhibition at 10 µM (ALDH3A1 [1]): 58%

CNS(=O)(=O)c1ccc(Nc2ccc(OC)cc2)c([N+](=O)[O-])c1 [Compound 10]
concentration of homogenous solution easily formed (Solubility): ≥ 100 µM | IC50 (ALDH3A1 [2]; [5]): 31.7 µM | IC50 (ALDH3A1 [2]; [6]): 31 µM | effect on cell proliferation as single agent (in words), A549 (A549 cells): little effect on cell proliferation | effect on cell proliferation as single agent (in words), SF767 (SF767 cells): little effect on cell proliferation | inhibitory potential / activity toward ALDH1A1 in vitro (in words) (ALDH1A1): no inhibitory potential | inhibitory potential toward ALDH2 activity in vitro (in words) (ALDH2): no inhibitory potential

Cc1ccc(C)c(Nc2ccc(S(C)(=O)=O)cc2[N+](=O)[O-])c1 [Compound 7]
IC50 (micromolar) ALDH1A1 (ALDH1A1): WA (WA represents (30-50) % activation shown by 100 μM compound to respective enzymes)

O=[N+](O)c1ccccc1CNc1ccc(F)c(F)c1 [CB2]
IC50 (ALDH3A1 [2]; [3]): 5.2 µM

Cc1cc(C2CNc3ccccc32)oc(=O)c1 (stereo not drawn) [CB4]
inhibition at 10 µM (ALDH3A1 [1]): 60%

Cc1nc2ccccc2n1S(=O)(=O)c1ccc(Cl)cc1 [Compound A20]
chemosensitivity to mafosfamide (in words), SF767 (SF767 cells): significantly increased chemosensitivity

CCOC(=O)CN1C(=O)C(O)(CC(=O)c2ccccn2)c2ccccc21 (stereo not drawn) [CD7]
IC50 (ALDH3A1 [2]; [4]): 25.5 µM | IC50 (ALDH1A1): 0.7 µM

c1ccc(CNc2nc(-c3ccccn3)cs2)cc1 [CB27]
inhibition at 10 µM (ALDH3A1 [1]): 43%

CNS(=O)(=O)c1ccc(Nc2ccc(OC(F)F)cc2)c([N+](=O)[O-])c1 [Compound 11]
concentration of homogenous solution easily formed (Solubility): ≥ 100 µM | IC50 (ALDH3A1 [2]; [5]): 24.7 µM | IC50 (ALDH3A1 [2]; [6]): 24 µM | sensitivity to mafosfamide on co-treatment (in words), A549 (A549 cells): increased sensitivity to mafosfamide | effect on cell proliferation as single agent (in words), A549 (A549 cells): little effect on cell proliferation | sensitivity to mafosfamide on co-treatment (in words), SF767 (SF767 cells): increased sensitivity to mafosfamide | effect on cell proliferation as single agent (in words), SF767 (SF767 cells): little effect on cell proliferation | inhibitory potential / activity toward ALDH1A1 in vitro (in words) (ALDH1A1): no inhibitory potential | inhibitory potential toward ALDH2 activity in vitro (in words) (ALDH2): no inhibitory potential

CCn1c(-c2ccc(OC)c(F)c2)cs/c1=N/c1ccccc1 [CD13]
IC50 (ALDH3A1 [2]; [4]): 60 µM | IC50 (ALDH1A1): 6.3 µM | IC50 (ALDH2): 7.3 µM

CCN(CC)CCC(=O)c1ccc2c(c1)OCO2 [CB12]
IC50 (ALDH3A1 [2]; [3]): 3.2 µM

Cc1ccc(S(=O)(=O)NC(O)C(=O)c2cccs2)cc1 (stereo not drawn) [CD10]
IC50 (ALDH3A1 [2]; [4]): 3.4 µM | IC50 (ALDH1A1): 4 µM | IC50 (ALDH2): 2.2 µM

N#CSCCCCOc1ccc(Cl)cc1 [CB1]
IC50 (ALDH3A1 [2]; [3]): 3.7 µM

O=C1Nc2ccccc2C12Oc1ccccc1C1CC(c3ccccc3)=NN12 (stereo not drawn) [CD3]
IC50 (ALDH3A1 [2]; [4]): 38.5 µM | IC50 (ALDH1A1): 6.5 µM | IC50 (ALDH2): 41.8 µM

O=C(CSc1ccccc1)NCc1ccco1 [CB23]
inhibition at 10 µM (ALDH3A1 [1]): 65%

O=[N+]([O-])c1ccc(N2CCCC2)c(F)c1 [CB14]
inhibition at 10 µM (ALDH3A1 [1]): 47%
